Columns and labels:
[1] = tested on: mitochondrial content per cell in muscle tissue; experiment: Mitochondrial DNA copies per cell in muscle tissue; assay type: in vivo, human; conditions: 1000 mg per day for 28 days compared with placebo
Method: Muscle biopsies were collected on Day −1 and Day 28 at pre-dose under fasted state using the Bergström biopsy needle technique. The minimal amount of each muscle tissue sample was approximately 50 mg. One third of the tissue was used for gene expression (≈50 mg), and was further divided into two equal portions: one portion for RNA analysis (≈25 mg) and one portion for DNA analysis (≈25 mg), both in a Safe-lock Tubes 2.0 ml, Eppendorf (part no. 0030.120.094). Muscle tissue was snap frozen using liquid nitrogen immediately after collection and further, long term storage will be in a −80° C. freezer. The mRNA was analysed by microarray. Quantification of mtDNA over nuclear DNA provided another measure of mitochondrial abundance. The shipment was done in dry ice by specialized carrier. Temperatures were monitored using data logger during all transport. Increasing mitochondrial content per cell in muscle tissue was also observed following dosage of 1000 mg urolithin A per day for 28 days compared with placebo.

[2] = Steady state plasma levels of total Urolithin A over 4-week dosing; assay type: in vivo, human; conditions: Day 31 and Day 32
Method: A double-blind, randomized, placebo controlled clinical trial was conducted in healthy elderly to establish the steady state levels of Urolithin A in plasma. Elderly subjects (61-82 years) (n=9), participated in each group of dosing. The subjects met all the inclusion and exclusion criteria of the study and signed informed consent. The subjects were overnight fasted and the plasma was collected in the morning before breakfast to assess steady state levels. Subjects were given a dose of Urolithin or placebo each morning for the 28 day trial. The urolithin A was given as softgel capsules containing 250 mg of Urolithin A in each capsule. Plasma samples were collected for assessment of Urolithin A steady state concentrations in the 4-week Urolithin A study at the following time points (Day 0, Day 7, Day 14, Day 28, Day 29, Day 31, and Day 32). […] On day 28 the subjects were admitted to a Phase 1 clinical trial unit and the kinetics of Urolithin A absorption, and elimination following multiple 4-week dosing were followed until 96 hours following the last dosing on Day 28. Plasma was collected at the following time-points post last dosing with Urolithin A on Day 28: pre-dose, 1 hr, 2 hr, 4 hr, 6 hr, 8 hr, 12 hr, 24 hr, 72 hr and 96 hr. […] The exact time of sample collection was recorded on the eCRF (electronic case report from). […]

steady state levels after the end of the 4-week UA administration [2]: gradually declined
SMILES: O=c1oc2cc(O)ccc2c2ccc(O)cc12 [Urolithin A]
mitochondrial content per cell in muscle tissue (mitochondrial DNA copies per cell) [1]: Increasing
